In ChEMBL document CHEMBL1201862, “PubChem BioAssay data set” (2004):
The source made the active and inactive calls.

Key:
Cytochrome P450 2C19 = Cytochrome P450 2C19 (Homo sapiens, UniProt P33261); assay: Cytochrome panel assay with activity outcomes. Panel member name: p450-cyp2c19 Compounds with AC50 equal or less than 10 uM are considered active; format: functional; conditions: read-out: AC50
Cytochrome P450 1A2 = biological target: T1, Cytochrome P450 1A2 (Homo sapiens, UniProt P05177);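 note: PubChem cytochrome P450 panel assay, CYP1A2 panel member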
T1 sequence (P05177 whole entry): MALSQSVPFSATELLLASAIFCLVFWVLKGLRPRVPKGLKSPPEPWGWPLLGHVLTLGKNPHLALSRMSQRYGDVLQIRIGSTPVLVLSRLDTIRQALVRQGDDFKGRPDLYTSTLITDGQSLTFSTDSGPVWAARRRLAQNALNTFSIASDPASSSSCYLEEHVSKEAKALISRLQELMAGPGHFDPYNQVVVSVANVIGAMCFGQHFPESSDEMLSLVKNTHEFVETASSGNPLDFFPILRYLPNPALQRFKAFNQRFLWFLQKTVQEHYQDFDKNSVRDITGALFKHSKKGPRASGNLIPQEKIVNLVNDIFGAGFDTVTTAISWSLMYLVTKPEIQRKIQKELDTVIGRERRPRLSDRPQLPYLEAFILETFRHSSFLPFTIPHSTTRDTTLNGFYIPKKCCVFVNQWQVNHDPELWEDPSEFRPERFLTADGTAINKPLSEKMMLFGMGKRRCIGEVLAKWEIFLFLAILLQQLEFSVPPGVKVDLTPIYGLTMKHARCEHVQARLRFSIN

[1] = Luminescence Cell-Based Dose Retest to Confirm Inhibitors of Cancer Stem Cells. [Related pubchem assays (depositor defined):AID2717, AID2721]; format: functional; conditions: Homo sapiens
Streptokinase A = biological target: T2, Streptokinase A (Streptococcus pyogenes serotype M1, UniProt P10520); assay: S. pyogenes streptokinase expression inhibitors, potency, dose response, plasminogen activation absorbance, OD405 (AID 1914); format: functional, Streptococcus pyogenes M1 GAS;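 note: secreted streptokinase activity via plasminogen activation per viability signal from cell pellet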
T2 sequence (P10520 whole entry): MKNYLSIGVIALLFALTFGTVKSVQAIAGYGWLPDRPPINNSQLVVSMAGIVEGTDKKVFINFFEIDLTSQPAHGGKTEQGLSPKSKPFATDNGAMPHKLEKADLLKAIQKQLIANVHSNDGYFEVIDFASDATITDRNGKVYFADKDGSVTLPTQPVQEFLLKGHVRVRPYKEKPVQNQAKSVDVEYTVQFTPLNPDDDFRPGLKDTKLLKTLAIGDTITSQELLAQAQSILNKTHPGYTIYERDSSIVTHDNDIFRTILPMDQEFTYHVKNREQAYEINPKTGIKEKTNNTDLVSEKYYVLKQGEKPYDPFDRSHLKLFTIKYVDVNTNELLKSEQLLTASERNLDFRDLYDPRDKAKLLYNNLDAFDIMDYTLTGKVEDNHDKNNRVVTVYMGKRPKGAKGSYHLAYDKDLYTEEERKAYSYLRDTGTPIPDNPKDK

[2] = tested on: Streptococcus sp. 'group A'; assay: growth inhibition of control SK(-) GAS strain, dose response, counter-screen for streptokinase expression inhibitor project, luminescence, kanamycin, BacTiterGlo, confirmation (AID 1900); format: functional, organism-based
Cytochrome P450 2C9 = Cytochrome P450 2C9 (Homo sapiens, UniProt P11712)
Cytochrome P450 2C9, sequence (P11712 whole entry): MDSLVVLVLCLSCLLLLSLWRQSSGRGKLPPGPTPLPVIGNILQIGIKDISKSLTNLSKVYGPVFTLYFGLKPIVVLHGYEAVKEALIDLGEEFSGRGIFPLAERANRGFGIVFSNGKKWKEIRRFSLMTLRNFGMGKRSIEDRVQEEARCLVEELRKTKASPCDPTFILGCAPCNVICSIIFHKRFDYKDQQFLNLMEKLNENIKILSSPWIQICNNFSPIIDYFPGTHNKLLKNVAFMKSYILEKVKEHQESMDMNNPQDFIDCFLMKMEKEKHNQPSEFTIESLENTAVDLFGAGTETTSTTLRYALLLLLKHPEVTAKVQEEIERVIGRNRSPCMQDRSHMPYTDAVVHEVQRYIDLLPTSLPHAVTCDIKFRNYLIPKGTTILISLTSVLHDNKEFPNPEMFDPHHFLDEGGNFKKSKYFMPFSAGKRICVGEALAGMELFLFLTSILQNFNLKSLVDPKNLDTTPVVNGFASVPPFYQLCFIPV

Streptococcus = assay: Group A Streptococcus viability loss, dose response, counter-screen for streptokinase expression inhibitor project, luminescence, BacTiterGlo (AID 1915); format: functional, organism-based;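 note: potency for reduction of bacterial viability or growth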
Cytochrome P450 3A4 = Cytochrome P450 3A4 (Homo sapiens, UniProt P08684);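 note: CYP3A4 tested as one member of a cytochrome P450 panel screen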
Cytochrome P450 3A4, sequence (P08684 whole entry): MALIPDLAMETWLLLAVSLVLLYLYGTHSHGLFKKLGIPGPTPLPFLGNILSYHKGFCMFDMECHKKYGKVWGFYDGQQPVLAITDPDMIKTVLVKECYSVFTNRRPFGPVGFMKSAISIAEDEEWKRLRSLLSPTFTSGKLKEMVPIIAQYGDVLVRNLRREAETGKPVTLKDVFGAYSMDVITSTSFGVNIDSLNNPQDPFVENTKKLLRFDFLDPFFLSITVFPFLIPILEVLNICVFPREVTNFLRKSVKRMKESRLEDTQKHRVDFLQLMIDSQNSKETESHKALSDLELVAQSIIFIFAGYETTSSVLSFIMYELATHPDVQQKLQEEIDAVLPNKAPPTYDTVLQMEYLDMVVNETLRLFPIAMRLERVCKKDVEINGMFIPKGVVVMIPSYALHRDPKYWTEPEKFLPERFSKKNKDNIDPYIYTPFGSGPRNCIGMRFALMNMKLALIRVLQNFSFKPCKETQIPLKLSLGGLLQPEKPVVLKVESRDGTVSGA

[3] = cytotoxicity in HPDE-C7 cells, cell-based, fluorescence, HTS (AID 430); format: functional; conditions: Homo sapiens
[4] = cytotoxicity in KRAS-transformed pancreatic duct cells, primary screen, cell-based, fluorescence, HTS (AID 431); format: functional; conditions: Homo sapiens;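 note: cell line used: HPDE-C7K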
[5] = biological target: T3, Endoribonuclease toxin MazF (Escherichia coli K-12, UniProt P0AE70); assay: MazF toxin RNase activators, dose response, biochemical, fluorescence, single-stranded RNA substrate, uHTS hits (AID 588481); format: functional
T3 sequence (P0AE70 whole entry): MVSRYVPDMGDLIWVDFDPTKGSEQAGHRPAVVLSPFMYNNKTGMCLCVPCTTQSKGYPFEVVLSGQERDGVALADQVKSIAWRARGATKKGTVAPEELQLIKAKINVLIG

[6] = biological target: T3, Endoribonuclease toxin MazF; assay: fluorescent RNA oligo signal without MazF, dose response, counter-screen for MazEF activator project, biochemical, fluorescence, single-stranded RNase substrate (AID 588502); format: functional
[7] = growth suppression of PTEN-null colon cells, dose response, cell-based, HCT116 PTEN knockout (AID 1047); format: functional;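 note: HCT116 colon tumor cells with PTEN knocked out; cells exposed to compound for 60 hours before readout; potency for loss of cell viability measured by luminescence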
[8] = growth suppression of beta-catenin-knockout colon cells, dose response, cell-based, HCT116, human colon tumor (AID 1045); format: functional;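 note: HCT116 colon tumor cells with beta catenin knocked out; cells exposed to compound for 60 hours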
[9] = biological target: Voltage-dependent T-type calcium channel subunit alpha-1H (Homo sapiens, UniProt O95180); format: functional;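 note: channel activity triggered by adding a high calcium stimulation buffer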
Voltage-dependent T-type calcium channel subunit alpha-1H, sequence (O95180 whole entry): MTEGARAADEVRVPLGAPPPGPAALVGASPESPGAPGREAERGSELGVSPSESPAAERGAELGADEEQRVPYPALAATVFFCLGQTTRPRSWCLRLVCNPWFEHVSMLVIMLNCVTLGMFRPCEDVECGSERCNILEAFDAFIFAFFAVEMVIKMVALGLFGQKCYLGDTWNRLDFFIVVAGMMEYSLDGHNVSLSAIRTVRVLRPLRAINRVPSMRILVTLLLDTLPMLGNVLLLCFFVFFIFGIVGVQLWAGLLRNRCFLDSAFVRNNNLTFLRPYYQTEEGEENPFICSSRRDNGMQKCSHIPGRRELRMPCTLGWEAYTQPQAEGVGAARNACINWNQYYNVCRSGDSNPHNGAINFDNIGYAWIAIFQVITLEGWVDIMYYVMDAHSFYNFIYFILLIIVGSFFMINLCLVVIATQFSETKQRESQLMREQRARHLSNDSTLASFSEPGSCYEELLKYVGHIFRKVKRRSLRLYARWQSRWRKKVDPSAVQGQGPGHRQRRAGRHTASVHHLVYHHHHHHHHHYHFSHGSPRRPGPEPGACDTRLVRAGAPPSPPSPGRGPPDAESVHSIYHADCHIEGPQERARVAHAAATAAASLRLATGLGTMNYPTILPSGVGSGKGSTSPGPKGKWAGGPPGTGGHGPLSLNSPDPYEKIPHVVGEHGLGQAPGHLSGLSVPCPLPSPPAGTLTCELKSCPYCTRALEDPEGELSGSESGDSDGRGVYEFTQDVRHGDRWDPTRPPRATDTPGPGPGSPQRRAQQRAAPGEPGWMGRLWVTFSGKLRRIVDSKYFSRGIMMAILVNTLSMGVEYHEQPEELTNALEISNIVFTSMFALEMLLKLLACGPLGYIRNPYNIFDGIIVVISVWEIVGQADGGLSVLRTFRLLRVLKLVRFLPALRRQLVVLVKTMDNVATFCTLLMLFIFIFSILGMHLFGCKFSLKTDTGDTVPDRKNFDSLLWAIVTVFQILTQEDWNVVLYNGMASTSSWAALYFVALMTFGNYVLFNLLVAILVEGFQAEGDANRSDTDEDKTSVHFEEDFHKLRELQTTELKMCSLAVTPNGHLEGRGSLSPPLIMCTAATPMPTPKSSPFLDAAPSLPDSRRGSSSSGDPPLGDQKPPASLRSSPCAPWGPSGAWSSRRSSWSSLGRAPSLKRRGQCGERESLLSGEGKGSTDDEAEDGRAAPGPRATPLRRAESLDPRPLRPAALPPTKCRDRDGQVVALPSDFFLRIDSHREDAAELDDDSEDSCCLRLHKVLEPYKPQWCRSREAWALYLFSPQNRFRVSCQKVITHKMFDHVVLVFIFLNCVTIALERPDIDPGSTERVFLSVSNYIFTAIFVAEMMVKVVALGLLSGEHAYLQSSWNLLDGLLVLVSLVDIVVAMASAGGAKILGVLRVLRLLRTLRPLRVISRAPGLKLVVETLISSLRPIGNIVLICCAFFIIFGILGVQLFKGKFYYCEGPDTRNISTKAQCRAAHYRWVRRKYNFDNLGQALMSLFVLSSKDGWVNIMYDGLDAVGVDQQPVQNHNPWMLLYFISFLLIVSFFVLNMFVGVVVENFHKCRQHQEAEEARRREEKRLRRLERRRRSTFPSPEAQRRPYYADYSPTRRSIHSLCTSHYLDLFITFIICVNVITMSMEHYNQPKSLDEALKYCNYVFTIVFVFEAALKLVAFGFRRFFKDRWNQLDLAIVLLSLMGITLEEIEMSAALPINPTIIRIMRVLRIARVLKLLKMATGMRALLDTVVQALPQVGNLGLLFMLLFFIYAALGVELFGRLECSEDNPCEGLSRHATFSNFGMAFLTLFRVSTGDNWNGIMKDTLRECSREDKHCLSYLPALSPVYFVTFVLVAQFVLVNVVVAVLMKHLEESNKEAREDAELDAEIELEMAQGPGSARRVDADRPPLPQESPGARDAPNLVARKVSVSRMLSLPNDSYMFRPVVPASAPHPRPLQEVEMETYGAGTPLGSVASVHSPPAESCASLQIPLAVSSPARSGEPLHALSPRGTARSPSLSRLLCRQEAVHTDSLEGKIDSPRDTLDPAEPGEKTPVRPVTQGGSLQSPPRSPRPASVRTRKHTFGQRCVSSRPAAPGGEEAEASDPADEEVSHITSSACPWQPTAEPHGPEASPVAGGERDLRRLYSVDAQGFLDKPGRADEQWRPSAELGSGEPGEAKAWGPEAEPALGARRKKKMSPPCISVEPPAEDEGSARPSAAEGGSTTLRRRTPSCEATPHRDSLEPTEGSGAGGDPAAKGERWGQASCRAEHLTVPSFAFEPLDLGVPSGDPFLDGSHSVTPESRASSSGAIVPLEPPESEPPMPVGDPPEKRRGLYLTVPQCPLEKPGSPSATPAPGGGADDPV

[10] = cytotoxicity in HEK-293T cells, dose response, cytotoxicity control for TCR NF-kB inhibitor project, luminescence, T-cell screen hits (AID 489026); format: functional, cell-based;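 note: cells exposed to compound about 14 hours before the viability readout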
[11] = MC4R antagonists, dose response, counter-screen for LGR2 antagonist project, cell-based, plate reader, cherry pick (AID 743444); format: functional;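 note: transfected HEK 293 cells stimulated with alpha-MSH peptide; potency of inhibitors of the alpha-MSH evoked signal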
[12] = cytotoxicity toward NIH3T3 fibroblasts, dose response, counter-screen, cell-based, ATP luminescence, mouse fibroblasts (AID 2010); format: functional;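 note: cells exposed to compound for about 90 hours before reading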
[13] = inhibitors of intracellular T. cruzi replication, confirmation, NIH3T3 host cells, beta-gal luminescence (AID 2044); format: functional, cell-based;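 note: intracellular parasites grown in NIH/3T3 mouse fibroblasts as host cells; luminescent beta-galactosidase reporter signal from transgenic T. cruzi replicating inside host cells; inhibitors lower the luminescence signal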
[14] = LGR2 antagonists, dose response, cell-based, HEK293, CRE-luciferase reporter, cherry pick, set 2 (AID 743343); format: functional;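 note: transfected cells were stimulated with diluted bursicon conditioned medium after compound addition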
Leucine aminopeptidase = biological target: T4, Leucine aminopeptidase (Plasmodium falciparum 3D7, UniProt Q8IL11); assay: P. falciparum M17LAP inhibitors, primary screen, biochemical, fluorogenic H-Leu-NHMec substrate, 1536-well (AID 1619); format: functional
T4 sequence (Q8IL11 whole entry): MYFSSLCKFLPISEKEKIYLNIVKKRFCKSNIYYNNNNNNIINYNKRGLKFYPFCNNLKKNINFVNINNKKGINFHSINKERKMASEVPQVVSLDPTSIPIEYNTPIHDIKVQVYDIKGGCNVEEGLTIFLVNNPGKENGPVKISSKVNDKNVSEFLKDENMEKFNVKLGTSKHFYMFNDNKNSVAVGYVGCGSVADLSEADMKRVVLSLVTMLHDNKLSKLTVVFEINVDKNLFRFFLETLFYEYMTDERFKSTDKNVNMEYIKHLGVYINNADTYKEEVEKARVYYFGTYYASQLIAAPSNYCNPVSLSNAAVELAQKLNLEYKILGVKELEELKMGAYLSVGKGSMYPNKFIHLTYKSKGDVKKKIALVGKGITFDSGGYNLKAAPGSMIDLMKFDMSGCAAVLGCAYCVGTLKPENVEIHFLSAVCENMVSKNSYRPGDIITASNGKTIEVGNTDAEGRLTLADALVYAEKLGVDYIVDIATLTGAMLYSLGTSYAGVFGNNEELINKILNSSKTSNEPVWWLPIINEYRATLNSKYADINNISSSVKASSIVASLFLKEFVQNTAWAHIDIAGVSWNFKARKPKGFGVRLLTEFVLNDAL

Genome polyprotein = Genome polyprotein (dengue virus type 2, UniProt P29990); assay: Dengue-2 NS5 methyltransferase inhibitors, primary screen, biochemical, confirmation dose response (AID 588689); format: functional
Genome polyprotein, sequence (P29990 2492-3391 limits assumed): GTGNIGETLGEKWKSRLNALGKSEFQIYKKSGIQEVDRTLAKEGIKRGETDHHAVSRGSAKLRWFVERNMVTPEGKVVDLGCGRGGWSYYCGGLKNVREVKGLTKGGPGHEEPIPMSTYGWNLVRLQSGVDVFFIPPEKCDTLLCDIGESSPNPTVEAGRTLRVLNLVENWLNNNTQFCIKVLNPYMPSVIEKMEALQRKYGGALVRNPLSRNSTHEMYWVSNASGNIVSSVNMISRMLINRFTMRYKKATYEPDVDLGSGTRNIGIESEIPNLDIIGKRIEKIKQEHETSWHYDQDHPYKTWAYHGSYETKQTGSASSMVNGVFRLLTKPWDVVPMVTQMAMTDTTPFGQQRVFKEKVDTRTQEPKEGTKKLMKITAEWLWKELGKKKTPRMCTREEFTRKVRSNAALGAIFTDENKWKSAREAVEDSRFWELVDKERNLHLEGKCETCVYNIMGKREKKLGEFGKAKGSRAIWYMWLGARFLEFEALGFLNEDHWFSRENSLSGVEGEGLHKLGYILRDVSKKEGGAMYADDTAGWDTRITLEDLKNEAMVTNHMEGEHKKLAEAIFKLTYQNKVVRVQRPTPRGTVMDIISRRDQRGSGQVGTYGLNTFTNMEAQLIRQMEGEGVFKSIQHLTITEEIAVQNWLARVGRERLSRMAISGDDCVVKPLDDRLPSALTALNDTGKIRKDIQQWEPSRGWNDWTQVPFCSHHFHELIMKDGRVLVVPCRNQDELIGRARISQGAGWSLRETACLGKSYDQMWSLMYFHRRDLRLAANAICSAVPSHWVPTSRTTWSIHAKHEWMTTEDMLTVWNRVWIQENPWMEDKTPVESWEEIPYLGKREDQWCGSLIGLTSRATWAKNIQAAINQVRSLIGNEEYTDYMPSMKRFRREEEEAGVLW

[15] = biological target: Induced myeloid leukemia cell differentiation protein Mcl-1 (Homo sapiens, UniProt Q07820); format: functional
Induced myeloid leukemia cell differentiation protein Mcl-1, sequence (Q07820 whole entry): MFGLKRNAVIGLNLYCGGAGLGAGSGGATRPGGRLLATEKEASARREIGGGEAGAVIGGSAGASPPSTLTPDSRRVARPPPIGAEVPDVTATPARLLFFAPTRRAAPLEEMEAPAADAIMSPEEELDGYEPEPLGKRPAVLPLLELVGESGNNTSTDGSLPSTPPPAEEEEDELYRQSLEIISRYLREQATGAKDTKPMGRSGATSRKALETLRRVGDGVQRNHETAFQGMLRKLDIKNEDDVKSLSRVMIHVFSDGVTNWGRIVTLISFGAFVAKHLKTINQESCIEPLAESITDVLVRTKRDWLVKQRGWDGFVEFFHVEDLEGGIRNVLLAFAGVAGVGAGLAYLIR

Cytochrome P450 2D6 = Cytochrome P450 2D6 (Homo sapiens, UniProt P10635);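 note: CYP2D6 member of a cytochrome P450 panel assay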
Cytochrome P450 2D6, sequence (P10635 whole entry): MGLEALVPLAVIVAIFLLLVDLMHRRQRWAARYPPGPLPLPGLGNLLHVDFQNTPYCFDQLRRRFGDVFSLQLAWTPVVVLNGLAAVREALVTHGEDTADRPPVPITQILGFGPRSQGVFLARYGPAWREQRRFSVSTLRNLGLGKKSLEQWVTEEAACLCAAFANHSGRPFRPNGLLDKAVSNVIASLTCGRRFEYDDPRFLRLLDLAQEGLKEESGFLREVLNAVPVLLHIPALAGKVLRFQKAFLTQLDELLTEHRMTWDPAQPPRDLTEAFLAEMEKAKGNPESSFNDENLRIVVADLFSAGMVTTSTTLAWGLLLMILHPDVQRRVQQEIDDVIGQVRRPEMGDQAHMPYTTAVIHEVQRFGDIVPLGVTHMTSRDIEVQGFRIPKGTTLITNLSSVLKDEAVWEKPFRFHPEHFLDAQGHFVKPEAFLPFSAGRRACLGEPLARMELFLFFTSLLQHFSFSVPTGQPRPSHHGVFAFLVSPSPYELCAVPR

H4 = assay: Luminescence Cell-Based Dose Response HTS to Identify Activators of 5'UTR Stem-Loop Driven Prion Protein mRNA Translation in H4 Neuroglioblastoma Cells. [Related pubchem assays: 1829 (Project Summary), 1814 (Primary HTS)]; format: functional; conditions: Homo sapiens
[16] = Luminescence Cell-Based Dose Confirmation HTS to Identify Activators of 5'UTR Stem-Loop Driven Alpha-Synuclein mRNA Translation in H4 Neuroglioblastoma Cells. [Related pubchem assays: 1829 (Project Summary), 1814 (Primary HTS)]; format: functional
[17] = Luminescence Cell-Based Dose Response HTS to Identify Activators of Luciferase Translation or Activity in H4 […] Cells. [Related pubchem assays: 1829 (Project Summary), 1814 (Primary HTS)]; format: functional
Fatty acid synthase = Fatty acid synthase (Homo sapiens, UniProt P49327); assay: FAS thioesterase domain inhibitors, dose response, biochemical, kinetic fluorescence intensity (AID 624326); format: functional;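 note: rate of fluorescence rise from hydrolysis of a fluorogenic O-methyl fluorescein ester substrate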

CCNc1nc(Oc2c(Cl)cccc2Cl)cc(C(F)(F)F)n1
AC50 (Cytochrome P450 2C19): 2 µM (inconclusive) | AC50 (Cytochrome P450 1A2): 14.1 µM (inconclusive) | AC50 [1]: 8.17 µM (active) | EC50 (Streptokinase A): 17.6 µM (active) | EC50 [2]: 7.68 µM (active) | AC50 (Cytochrome P450 2C9): inconclusive | EC50 (Streptococcus): > 150 µM (not active)

COc1cc(N)c(Cl)cc1C(=O)NC1CCN(Cc2ccccc2)CC1 [CLEBOPRIDE]
AC50 (Cytochrome P450 1A2): 12.6 µM (inconclusive) | AC50 (Cytochrome P450 2C9): inconclusive | AC50 (Cytochrome P450 3A4): 3.16 µM (inconclusive)

CCCC1(CCC)C(=O)N=C(NCc2ccccc2)NC1=O
EC50 [3]: 14.4 µM (active) | EC50 [4]: 13.4 µM (active)

Cc1ccc(S(=O)(=O)N(CC(=O)N/N=C\c2cccs2)c2cccc3cccnc23)cc1
EC50 [5]: > 99 µM (inactive) | EC50 [6]: > 99 µM (inactive)

CCC(Sc1nc2cc3c(cc2c(=O)n1Cc1ccco1)OCO3)C(=O)Nc1cccc(OC)c1 (centres undefined)
AC50 (Cytochrome P450 1A2): 4.47 µM (inconclusive) | EC50 [7]: 3.73 µM (active) | EC50 [3]: 4.41 µM (active) | EC50 [8]: 3.68 µM (active) | EC50 [4]: 4.17 µM (active)

COc1ccc2c(c1O)-c1c(OC)c(OC)cc3c1[C@H](C2)N(C)CC3 [ISOCORYDINE]
AC50 (Cytochrome P450 1A2): 10 µM (inconclusive) | AC50 (Cytochrome P450 2C9): inconclusive

Cc1cccc(COCC(Cc2ccccc2)N2CCN(C(=O)c3cc(Cl)cc(Cl)c3)CCC2=O)c1 (centres undefined)
EC50 [9]: 3.04 µM (active)

Cc1cccc(OCCNC(=O)c2ccc(Cl)c(S(=O)(=O)NCc3cccnc3)c2)c1
IC50 [10]: > 80 µM (inactive)

CC(C)Oc1ccc(CNC(=O)CC(c2ccccc2)c2cc(Cl)ccc2O)cc1 (centres undefined)
AC50 [11]: 26.7 µM (active) | AC50 (Cytochrome P450 1A2): 28.2 µM (inconclusive) | AC50 [1]: 5.73 µM (active) | EC50 [12]: > 30 µM (not active) | EC50 [13]: 2.17 µM (active) | AC50 [14]: 28 µM (active)

CC(C)(C)C1CCc2c(sc(NC(=O)C3CC=CCC3C(=O)O)c2C#N)C1 (centres undefined)
IC50 (Leucine aminopeptidase): 11 µM (active) | IC50 (Genome polyprotein): 39.4 µM (active)

COc1cc(-c2nnc(SCC3(c4ccccc4)OCCO3)o2)cc(OC)c1OC
AC50 (Cytochrome P450 2C9): inconclusive

Cc1ccc(-c2nc3ccccn3c2NCc2ccc3c(c2)OCO3)cc1
EC50 [9]: 12.8 µM (active)

NNS(=O)(=O)c1ccc(N2CCCC2=O)c([N+](=O)[O-])c1
EC50 [5]: 82 µM (inactive) | EC50 [6]: > 99 µM (inactive)

CC(=O)Nc1sc(N/N=C/c2ccc(O)cc2)nc1-c1ccc(C)cc1
IC50 [15]: 2.84 µM (active)

CS(=O)(=O)Nc1cccc(-c2cc(NCc3cccs3)ncn2)c1
AC50 (Cytochrome P450 2D6): 20 µM (inconclusive) | AC50 (Cytochrome P450 2C9): inconclusive

CC1CCCCC12NC(=O)N(CC(=O)Nc1sc3c(c1C(N)=O)CCC3)C2=O (centres undefined)
IC50 [15]: 3.5 µM (active)

CN(CCOc1ccc(Cl)cc1)c1ccc(S(=O)(=O)N2CCCCC2)cn1
EC50 [9]: 2.82 µM (active)

O=C(Nc1ccc2c(c1)CCC2)c1cccc(S(=O)(=O)N2CCN(c3ccccc3)CC2)c1
EC50 [9]: 6.08 µM (active)

Nc1scc2c(C(=O)O)nn(-c3ccccc3)c(=O)c12
IC50 (Genome polyprotein): 45 µM (active)

Cc1nc2ccc(C(=O)OCc3ccccc3Br)cc2nc1C
EC50 [5]: > 99 µM (inactive) | EC50 (H4): 0.281 µM (active) | EC50 [16]: 10.8 µM (active) | EC50 [17]: 66.7 µM (active) | EC50 [6]: > 99 µM (inactive)

CC(C)(C)OC(=O)NCCCC[C@H](NC(=O)c1[nH]cnc1C(=O)NC1CCN(C(=O)OC(C)(C)C)CC1)C(=O)OC(C)(C)C
IC50 (Fatty acid synthase): 1.6 µM (active)

O=C1c2ccccc2C(Nc2ccc(F)c(Cl)c2)N1Cc1ccco1 (centres undefined)
EC50 [9]: 3.88 µM (active)
